Test results from patent US20060128723A1, “Sulptionamide compounds that modulate chemokine receptor activity (CCR4)” (priority 2003, published 2006).
Structures can show the parent of a compound that is named as a salt.

Row | melting point | Compound
1 | 211 °C (dec.) | COc1nc(Br)cnc1NS(=O)(=O)c1sc(Cl)c(Cl)c1Cl (as salt: ammonium) [Example 6, N-(5-Bromo-3-methoxypyrazin-2-yl)-3,4,5-trichlorothiophene-2-sulphonamide, ammonium salt]
2 | 178 to 179 °C | COc1nc(Cl)cnc1NS(=O)(=O)c1sc(Cl)c(Cl)c1Cl [Example 7, 3,4,5-Trichloro-N-(5-chloro-3-methoxypyrazin-2-yl)thiophene-2-sulphonamide.]
3 | 116 to 117 °C | COc1nc(Cl)cnc1NS(=O)(=O)c1scc(Cl)c1Cl [Example 8, 3,4-Dichloro-N-(5-chloro-3-methoxypyrazin-2-yl)thiophene-2-sulphonamide.]

More lines, now with the values behind:

Row | Compound | melting point
4 | COc1nc(Br)cnc1NS(=O)(=O)c1scc(Cl)c1Cl (as salt: ammonium) [Example 5, N-(5-Bromo-3-methoxypyrazin-2-yl)-3,4-dichlorothiophene-2-sulphonamide, ammonium salt] | 204 °C (dec.)
5 | COc1nccnc1NS(=O)(=O)c1sc(Cl)c(Cl)c1Cl [Example 1, 3,4,5-Trichloro-N-(3-methoxypyrazin-2-yl)thiophene-2-sulphonamide] | 212 to 214 °C
6 | COc1nccnc1NS(=O)(=O)c1scc(Cl)c1Cl [Example 2, 3,4-Dichloro-N-(3-methoxypyrazin-2-yl)thiophene-2-sulphonamide] | 151.5 to 152.5 °C
7 | COc1nc(C)cnc1NS(=O)(=O)c1sc(Cl)c(Cl)c1Cl [Example 3, 3,4,5-Trichloro-N-(3-methoxy-5-methylpyrazin-2-yl)thiophene-2-sulphonamide] | 146 to 147 °C
8 | COc1nc(C)cnc1NS(=O)(=O)c1scc(Cl)c1Cl [Example 4, 3,4-Dichloro-N-(3-methoxy-5-methylpyrazin-2-yl)thiophene-2-sulphonamide] | 117 to 118 °C
